Among the data in US12570642B2, “GLP-IR modulating compounds” (Gilead Sciences, Inc., priority 2021, dated 2026) are EC50 values, retold here.

The target of this experiment is GLP-1R (Homo sapiens, UniProt P43220). Briefly: GLP-1R Activation - cAMP Assay. The settings on record: cAMP increase in CHO cells stably expressing GLP-1R; each compound run on one of the two cAMP assays (Assay 1 or Assay 2, not specified). The format is cell-based. The essentials: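 cAMP rise read by HTRF after 30 min agonist exposure (10-point titration, 37 °C) in HBSS/20 mM Hepes/0.1% BSA, following 1 h pre-incubation. Cells: stable GLP-1R CHO line, 1,000/well, seeded overnight. Sigmoidal fit of response vs log concentration gives EC50.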
Background: cAMP levels reflect the balance of adenylyl cyclase and phosphodiesterase activity.

The term EC50 denotes the concentration at which the effect is half-maximal. High values mean lower potency in that assay, low ones higher potency in that assay.

GLP-1R, sequence (P43220 24-463): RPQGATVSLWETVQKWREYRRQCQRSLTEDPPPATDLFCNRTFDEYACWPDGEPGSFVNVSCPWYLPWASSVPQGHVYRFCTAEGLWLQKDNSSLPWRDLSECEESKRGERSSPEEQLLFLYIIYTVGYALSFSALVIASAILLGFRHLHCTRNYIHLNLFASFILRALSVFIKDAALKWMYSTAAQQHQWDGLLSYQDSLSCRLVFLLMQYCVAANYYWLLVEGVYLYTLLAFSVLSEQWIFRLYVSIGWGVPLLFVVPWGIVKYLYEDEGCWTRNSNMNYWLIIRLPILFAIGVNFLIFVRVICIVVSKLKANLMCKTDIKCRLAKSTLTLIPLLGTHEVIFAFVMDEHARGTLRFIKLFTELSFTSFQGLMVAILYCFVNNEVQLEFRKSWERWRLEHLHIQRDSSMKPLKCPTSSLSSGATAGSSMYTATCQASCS

In the case of `CC1(C)COC[C@H]1n1c(Cc2cc(F)c(-c3ccc(F)c(OCc4c(F)cccc4F)n3)cc2F)nc2ccc(C(=O)O)cc21` [Example 475, (S)-2-(4-(6-((2,6-difluorobenzyl)oxy)-5-fluoropyridin-2-yl)-2,5-difluorobenzyl)-1-(4,4-dimethyltetrahydrofuran-3-yl)-1H-benzo[d]imidazole-6-carboxylic acid], the EC50 was 0.601 nM.

The molecule `CO[C@@]1(C)COC[C@H]1n1c(Cc2cc(F)c(-c3cccc(OCc4ccc(Cl)cc4F)n3)cc2F)nc2ccc(C(=O)O)cc21` (single isomer, unassigned) [Example 474] returned an EC50 of 0.181 nM.

The molecule `COCCn1c(Cc2cc(F)c(-c3cccc(OCc4cnc(-c5cn(C)nn5)cn4)n3)cc2F)nc2ccc(C(=O)O)cc21` [Example 37, 2-(2,5-difluoro-4-(6-((5-(1-methyl-1H-1,2,3-triazol-4-yl)pyrazin-2-yl)methoxy)pyridin-2-yl)benzyl)-1-(2-methoxyethyl)-1H-benzo[d]imidazole-6-carboxylic Acid] gave an EC50 of 1.97 nM.

Regarding `Cc1ccc(COc2cccc(-c3cc(F)c(Cc4nc5ccc(C(=O)O)cc5n4[C@@H]4COCC4(C)C)cc3F)n2)cc1Cl` [Example 452, (S)-2-(4-(6-((3-chloro-4-methylbenzyl)oxy)pyridin-2-yl)-2,5-difluorobenzyl)-1-(4,4-dimethyltetrahydrofuran-3-yl)-1H-benzo[d]imidazole-6-carboxylic acid], it took 0.564 nM to reach a half-maximal effect (EC50).

On to `CC1(C)COC[C@H]1n1c(Cc2cc(F)c(-c3cccc(OCc4ccc(Cl)cc4F)n3)cc2F)nc2cc(Cl)c(C(=O)O)cc21` [Example 402, (S)-5-chloro-2-(4-(6-((4-chloro-2-fluorobenzyl)oxy)pyridin-2-yl)-2,5-difluorobenzyl)-1-(4,4-dimethyltetrahydrofuran-3-yl)-1H-benzo[d]imidazole-6-carboxylic acid], for which the EC50 is 0.561 nM.

`CC1(C)COC[C@H]1n1c(Cc2c(F)cc(-c3cccc(OCc4ccc(C#N)cc4F)n3)c(F)c2F)nc2ccc(C(=O)O)cc21` [Example 120, (S)-2-(4-(6-((4-cyano-2-fluorobenzyl)oxy)pyridin-2-yl)-2,3,6-trifluorobenzyl)-1-(4,4-dimethyltetrahydrofuran-3-yl)-benzimidazole-6-carboxylic Acid] came in with an EC50 of 0.101 nM.

As for `CC1(C)COC[C@H]1n1c(Cc2cc(F)c(-c3cccc(OCc4c(F)cc(C#N)cc4F)n3)cc2F)nc2c(F)cc(C(=O)O)cc21` [Example 498, (S)-2-(4-(6-((4-cyano-2,6-difluorobenzyl)oxy)pyridin-2-yl)-2,5-difluorobenzyl)-1-(4,4-dimethyltetrahydrofuran-3-yl)-4-fluoro-1H-benzo[d]imidazole-6-carboxylic acid], the EC50 is 0.508 nM.

Molecule `CC1(C)COC[C@H]1n1c(Cc2c(F)cc(-c3cccc(OCc4ccc(C#N)cc4F)n3)cc2F)nc2ccc(C(=O)O)cc21` [Example 321, (S)-2-(4-(6-((4-cyano-2-fluorobenzyl)oxy)pyridin-2-yl)-2,6-difluorobenzyl)-1-(4,4-dimethyltetrahydrofuran-3-yl)-1H-benzo[d]imidazole-6-carboxylic acid] had a 50% effective concentration (EC50) of 0.083 nM.

Take `CC1(C)COC[C@H]1n1c(Cc2cc(F)c(-c3ccnc(OCc4ccc(C#N)cc4F)n3)cc2F)nc2ccc(C(=O)O)cc21` [Example 198, (S)-2-(4-(2-((4-cyano-2-fluorobenzyl)oxy)pyrimidin-4-yl)-2,5-difluorobenzyl)-1-(4,4-dimethyltetrahydrofuran-3-yl)-1H-benzo[d]imidazole-6-carboxylic acid]: a half-maximal response (EC50) required 0.508 nM.

In turn, `O=C(O)c1ccc2nc(Cc3cc(F)c(-c4cccc(OCc5ccc6ncsc6c5)n4)cc3F)n(C[C@@H]3CCO3)c2c1` [Example 530, (S)-2-(4-(6-(benzo[d]thiazol-6-ylmethoxy)pyridin-2-yl)-2,5-difluorobenzyl)-1-(oxetan-2-ylmethyl)-1H-benzo[d]imidazole-6-carboxylic acid] yielded an EC50 of 0.392 nM.

Regarding `CC1(C)COC[C@H]1n1c(Cc2c(F)cc(-c3ccc(F)c(OCc4ccc(C#N)cc4F)n3)c(F)c2F)nc2ccc(C(=O)O)cc21` [Example 482, (S)-2-(4-(6-((4-cyano-2-fluorobenzyl)oxy)-5-fluoropyridin-2-yl)-2,3,6-trifluorobenzyl)-1-(4,4-dimethyltetrahydrofuran-3-yl)-1H-benzo[d]imidazole-6-carboxylic acid], the concentration for a half-maximal effect (EC50) was found to be 0.011 nM.

With `COC(=O)N1Cc2ccc(COc3cccc(-c4cc(F)c(Cc5nc6ccc(C(=O)O)cc6n5C[C@@H]5CCO5)cc4F)n3)cc2C1` [Example 521, (S)-2-(2,5-difluoro-4-(6-((2-(methoxycarbonyl)isoindolin-5-yl)methoxy)pyridin-2-yl)benzyl)-1-(oxetan-2-ylmethyl)-1H-benzo[d]imidazole-6-carboxylic acid], it took 0.111 nM to reach a half-maximal effect (EC50).

With `COC[C@H]1COC[C@H]1n1c(Cc2cc(F)c(-c3cccc(OCc4ccc(C#N)cc4F)n3)cc2F)nc2ccc(C(=O)O)cc21` (racemic) [Example 184, 2-(4-(6-((4-cyano-2-fluorobenzyl)oxy)pyridin-2-yl)-2,5-difluorobenzyl)-1-((3S,4S)-4-(methoxymethyl)tetrahydrofuran-3-yl)-1H-benzo[d]imidazole-6-carboxylic Acid], the EC50 was found to be 0.157 nM.

The molecule `CC1(C)COC[C@H]1n1c(Cc2cc(F)c(-c3cccc(OCc4ccc(C(F)(F)F)cc4F)n3)cc2F)nc2c(F)cc(C(=O)O)cc21` [Example 169, (S)-2-(2,5-difluoro-4-(6-((2-fluoro-4-(trifluoromethyl)benzyl)oxy)pyridin-2-yl)benzyl)-1-(4,4-dimethyltetrahydrofuran-3-yl)-4-fluoro-1H-benzo[d]imidazole-6-carboxylic Acid] returned an EC50 of 0.171 nM.

For `Cc1cc(F)ccc1COc1cccc(-c2cc(F)c(Cc3nc4ccc(C(=O)O)cc4n3[C@@H]3COCC3(C)C)cc2F)n1` [Example 465, (S)-2-(2,5-difluoro-4-(6-((4-fluoro-2-methylbenzyl)oxy)pyridin-2-yl)benzyl)-1-(4,4-dimethyltetrahydrofuran-3-yl)-1H-benzo[d]imidazole-6-carboxylic acid], the response was half-maximal at 0.18 nM (EC50).

`COCCn1c(Cc2cc(F)c(-c3ccc(F)c(OCc4cnc(-n5ccnn5)cc4Cl)n3)cc2F)nc2ccc(C(=O)O)cc21` [Example 215, 2-(4-(6-((4-chloro-6-(1H-1,2,3-triazol-1-yl)pyridin-3-yl)methoxy)-5-fluoropyridin-2-yl)-2,5-difluorobenzyl)-1-(2-methoxyethyl)-1H-benzo[d]imidazole-6-carboxylic acid] registered an EC50 of 0.21 nM.

`N#Cc1ccc(COc2cccc(-c3cc(F)c(Cc4nc5ccc(C(=O)O)cc5n4C4CCC45CC5)cc3F)n2)c(F)c1` (stereo not drawn) [Example 64, 2-(4-(6-((4-cyano-2-fluorobenzyl)oxy)pyridin-2-yl)-2,5-difluorobenzyl)-1-(spiro[2.3]hexan-4-yl)-1H-benzo[d]imidazole-6-carboxylic Acid] showed a half-maximal effective concentration (EC50) of 1.28 nM.

Regarding `CC1(C)COC[C@H]1n1c(Cc2cc(F)c(-c3cccc(OCc4ncc(-n5ccnn5)cc4Cl)n3)cc2F)nc2ccc(C(=O)O)cc21` [Example 162, (S)-2-(4-(6-((3-chloro-5-(1H-1,2,3-triazol-1-yl)pyridin-2-yl)methoxy)pyridin-2-yl)-2,5-difluorobenzyl)-1-(4,4-dimethyltetrahydrofuran-3-yl)-1H-benzo[d]imidazole-6-carboxylic Acid], a half-maximal response (EC50) required 0.187 nM.
